In brackets after ≈: the same amount, converted by molar mass. Activity calls are given as the source filed them. No cut-off for these calls is given here.
Assays:
Pseudomonas aeruginosa [1] = test: Antibacterial activity against Pseudomonas aeruginosa ATCC 27853 assessed as inhibition of bacterial growth incubated for 24 hrs; assay type: functional
Pseudomonas aeruginosa [2] = test: Antibacterial activity against Pseudomonas aeruginosa clinical isolate assessed as inhibition of bacterial growth incubated for 24 hrs; assay type: functional
Staphylococcus aureus [3] = test: Antibacterial activity against methicillin resistant Staphylococcus aureus clinical isolate assessed as inhibition of bacterial growth incubated for 24 hrs; assay type: functional
Erythrocyte = test: Hemolytic activity in human Red blood cells assessed as concentration required for 5% hemolysis measured after 1.5 hrs by absorbance based assay; assay type: toxicity, cell-based
Staphylococcus aureus [4] = test: Antibacterial activity against Staphylococcus aureus ATCC 29213 assessed as inhibition of bacterial growth incubated for 24 hrs; assay type: functional
Staphylococcus aureus [5] = test: Antibacterial activity against Staphylococcus aureus ATCC 25923 assessed as inhibition of bacterial growth incubated for 24 hrs; assay type: functional
[6] = test system: Staphylococcus epidermidis; test: Antibacterial activity against Staphylococcus epidermidis ATCC 12228 assessed as inhibition of bacterial growth incubated for 24 hrs; assay type: functional
Acinetobacter baumannii = test: Antibacterial activity against Acinetobacter baumannii clinical isolate assessed as inhibition of bacterial growth incubated for 24 hrs; assay type: functional
Staphylococcus aureus [7] = test: Antibacterial activity against Staphylococcus aureus clinical isolate assessed as inhibition of bacterial growth incubated for 24 hrs; assay type: functional
Staphylococcus aureus [8] = test: Antibacterial activity against Staphylococcus aureus CMCC(B)26001 assessed as inhibition of bacterial growth incubated for 24 hrs; assay type: functional
Klebsiella pneumoniae = test: Antibacterial activity against Klebsiella pneumoniae clinical isolate assessed as inhibition of bacterial growth incubated for 24 hrs; assay type: functional
Staphylococcus aureus [9] = test: Antibacterial activity against Staphylococcus aureus ATCC 12600 assessed as inhibition of bacterial growth incubated for 24 hrs; assay type: functional
Staphylococcus aureus [10] = test: Antibacterial activity against Staphylococcus aureus CMCC(B)26003 assessed as inhibition of bacterial growth incubated for 24 hrs; assay type: functional
Enterococcus faecalis [11] = test: Antibacterial activity against Enterococcus faecalis clinical isolate assessed as inhibition of bacterial growth incubated for 24 hrs; assay type: functional
Escherichia coli [12] = test: Antibacterial activity against Escherichia coli clinical isolate assessed as inhibition of bacterial growth incubated for 24 hrs; assay type: functional
Escherichia coli [13] = test: Antibacterial activity against Escherichia coli ATCC 25922 assessed as inhibition of bacterial growth incubated for 24 hrs; assay type: functional
Enterococcus faecalis [14] = test: Antibacterial activity against vancomycin-resistant Enterococcus faecalis clinical isolate p1-2007226001 assessed as inhibition of bacterial growth incubated for 24 hrs; assay type: functional
Enterococcus faecium = test: Antibacterial activity against Enterococcus faecium ATCC 19434 assessed as inhibition of bacterial growth incubated for 24 hrs; assay type: functional
Staphylococcus aureus [15] = test: Antibacterial activity against Staphylococcus aureus ATCC 6538 assessed as inhibition of bacterial growth incubated for 24 hrs; assay type: functional
Enterococcus faecalis [16] = test: Antibacterial activity against vancomycin-resistant Enterococcus faecalis clinical isolate p1-2007225053 assessed as inhibition of bacterial growth incubated for 24 hrs; assay type: functional
Streptococcus pyogenes = test: Antibacterial activity against Streptococcus pyogenes ATCC 19615 assessed as inhibition of bacterial growth incubated for 24 hrs; assay type: functional
Staphylococcus aureus [17] = test: Antibacterial activity against methicillin-resistant Staphylococcus aureus ATCC 43300 assessed as inhibition of bacterial growth incubated for 24 hrs; assay type: functional
Streptococcus pneumoniae = test: Antibacterial activity against Streptococcus pneumoniae ATCC 6305 assessed as inhibition of bacterial growth incubated for 24 hrs; assay type: functional
Pseudomonas aeruginosa [18] = test: Bactericidal activity against Pseudomonas aeruginosa assessed as increase in fluorescence intensity at 2 ug/ml incubated for 6 hrs by PI staining based fluorescence analysis; assay type: functional, organism-based; details: dose 2.0 µg/ml
Cell membrane [19] = test: Induction of cell membrane permeability in methicillin-resistant Staphylococcus aureus assessed as increase in fluorescence intensity at 1 ug/ml incubated for 6 hrs by PI staining based fluorescence analysis; assay type: cell membranes; details: dose 1.0 µg/ml
Pseudomonas aeruginosa [20] = test: Induction of intracellular ROS generation in Pseudomonas aeruginosa assessed as increase in fluorescence intensity at 2 ug/ml incubated for 6 hrs in presence of N-acetyl-L-cysteine by DCFH-DA dye based fluorescence analysis; assay type: functional, organism-based; details: dose 2.0 µg/ml
Cell membrane [21] = test: Induction of cell membrane depolarization in methicillin-resistant Staphylococcus aureus assessed as increase in fluorescence intensity at 1 ug/ml measured for 30 mins by DiSC35 dye based fluorescence analysis; assay type: cell membranes; details: dose 1.0 µg/ml
Staphylococcus aureus [22] = test: Resistance development in ciprofloxacin-treated methicillin resistant Staphylococcus aureus assessed as increase in MIC measured after 15th generation; assay type: functional, organism-based
Cell membrane [23] = test: Induction of cell membrane depolarization in Pseudomonas aeruginosa assessed as increase in fluorescence intensity at 1 ug/ml measured for 30 mins by DiSC35 dye based fluorescence analysis; assay type: cell membranes; details: dose 1.0 µg/ml
Staphylococcus aureus [24] = test: Induction of morphological changes in methicillin resistant Staphylococcus aureus at 2 ug/ml incubated for 3 hrs by SEM analysis; assay type: functional, organism-based; details: dose 2.0 µg/ml
Pseudomonas aeruginosa [25] = test: Induction of morphological changes in Pseudomonas aeruginosa at 2 ug/ml incubated for 3 hrs by SEM analysis; assay type: functional, organism-based; details: dose 2.0 µg/ml
Pseudomonas aeruginosa [26] = test: Resistance development in ciprofloxacin-treated Pseudomonas aeruginosa ATCC 27853 assessed as increase in MIC measured after 15th generation; assay type: functional, organism-based
Pseudomonas aeruginosa [27] = test: Induction of intracellular ROS generation in Pseudomonas aeruginosa assessed as increase in fluorescence intensity at 2 ug/ml incubated for 6 hrs by DCFH-DA dye based fluorescence analysis; assay type: functional, organism-based; details: dose 2.0 µg/ml
Staphylococcus aureus [28] = test: Bactericidal activity against methicillin-resistant Staphylococcus aureus assessed as increase in fluorescence intensity at 2 ug/ml incubated for 6 hrs by PI staining based fluorescence analysis; assay type: functional, organism-based; details: dose 2.0 µg/ml
Staphylococcus aureus [29] = test: Antibiofilm activity in methicillin resistant Staphylococcus aureus assessed as biofilm eradication at 1 to 2 ug/ml measured after 24 hrs by crystal violet staining based analysis; assay type: functional, organism-based; details: dose 1-2 µg/ml
Pseudomonas aeruginosa [30] = test: Resistance development in ciprofloxacin-treated Pseudomonas aeruginosa assessed as increase in MIC measured after 15th generation; assay type: functional, organism-based
Cell membrane [31] = test: Induction of cell membrane permeability in Pseudomonas aeruginosa assessed as increase in fluorescence intensity at 1 ug/ml incubated for 6 hrs by PI staining based fluorescence analysis; assay type: cell membranes; details: dose 1.0 µg/ml
Pseudomonas aeruginosa [32] = test: Antibiofilm activity in Pseudomonas aeruginosa assessed as biofilm eradication at 1 to 2 ug/ml measured after 24 hrs by crystal violet staining based analysis; assay type: functional, organism-based; details: dose 1-2 µg/ml
Staphylococcus aureus [33] = test: Resistance development in ciprofloxacin-treated Staphylococcus aureus ATCC 6538 assessed as increase in MIC measured after 15th generation; assay type: functional, organism-based

N#CCc1cc2c(cc1F)c(=O)c(C(=O)O)cn2Cc1ccc(F)cc1F
MIC (Pseudomonas aeruginosa [1]): 0.5 µg/mL (≈ 1.34 µM) | MIC (Pseudomonas aeruginosa [2]): 0.5 µg/mL (≈ 1.34 µM) | MIC (Staphylococcus aureus [3]): 256 µg/mL (≈ 688 µM) | HC5 (Erythrocyte): 60 µg/mL | MIC (Staphylococcus aureus [4]): 0.5 µg/mL (≈ 1.34 µM) | MIC (Staphylococcus aureus [5]): 0.25 µg/mL (≈ 0.671 µM) | MIC [6]: 64 µg/mL (≈ 172 µM) | MIC (Acinetobacter baumannii): 4 µg/mL (≈ 10.7 µM) | MIC (Staphylococcus aureus [7]): 256 µg/mL (≈ 688 µM) | MIC (Staphylococcus aureus [8]): 2 µg/mL (≈ 5.37 µM) | MIC (Klebsiella pneumoniae): 8 µg/mL (≈ 21.5 µM) | MIC (Staphylococcus aureus [9]): 64 µg/mL (≈ 172 µM) | MIC (Staphylococcus aureus [10]): 2 µg/mL (≈ 5.37 µM) | MIC (Enterococcus faecalis [11]): 256 µg/mL (≈ 688 µM) | MIC (Escherichia coli [12]): 0.5 µg/mL (≈ 1.34 µM) | MIC (Escherichia coli [13]): 0.25 µg/mL (≈ 0.671 µM) | MIC (Enterococcus faecalis [14]): 64 µg/mL (≈ 172 µM) | MIC (Enterococcus faecium): 128 µg/mL (≈ 344 µM) | MIC (Staphylococcus aureus [15]): 32 µg/mL (≈ 86 µM) | MIC (Enterococcus faecalis [16]): 64 µg/mL (≈ 172 µM) | MIC (Streptococcus pyogenes): 0.25 µg/mL (≈ 0.671 µM) | MIC (Staphylococcus aureus [17]): 128 µg/mL (≈ 344 µM) | MIC (Streptococcus pneumoniae): 32 µg/mL (≈ 86 µM)

O=C(O)c1cn(C2CC2)c2cc(N3CCNCC3)c(F)cc2c1=O [CIPROFLOXACIN]
Activity (Pseudomonas aeruginosa [18]): Active | Activity (Cell membrane [19]): inactive | Activity (Pseudomonas aeruginosa [20]): inactive | Activity (Cell membrane [21]): inactive | MIC (Staphylococcus aureus [4]): 0.5 µg/mL (≈ 1.51 µM) | Activity (Staphylococcus aureus [22]): Active | MIC (Staphylococcus aureus [5]): 1 µg/mL (≈ 3.02 µM) | MIC [6]: 0.125 µg/mL (≈ 0.377 µM) | Activity (Cell membrane [23]): inactive | Activity (Staphylococcus aureus [24]): Active | Activity (Pseudomonas aeruginosa [25]): Active | Activity (Pseudomonas aeruginosa [26]): Active | MIC (Enterococcus faecium): 2 µg/mL (≈ 6.04 µM) | Activity (Pseudomonas aeruginosa [27]): Active | MIC (Staphylococcus aureus [15]): 0.5 µg/mL (≈ 1.51 µM) | Activity (Staphylococcus aureus [28]): Active | Activity (Staphylococcus aureus [29]): inactive | Activity (Pseudomonas aeruginosa [30]): Active | MIC (Streptococcus pyogenes): 16 µg/mL (≈ 48.3 µM) | Activity (Cell membrane [31]): inactive | MIC (Streptococcus pneumoniae): 0.125 µg/mL (≈ 0.377 µM) | Activity (Pseudomonas aeruginosa [32]): inactive | Activity (Staphylococcus aureus [33]): Active

Source: ChEMBL document CHEMBL5506059, “Cyanomethylquinolones as a New Class of Potential Multitargeting Broad-Spectrum Antibacterial Agents” (J Med Chem, 2024)
